The results in this text go back to ChEMBL document CHEMBL1128828, “Convergent approach to water soluble camptothecin derivatives” (1995).

Holding throughout (type): functional
Holding throughout (conditions): route intravenous

The subject of experiment [1] is Mus musculus. Kind of experiment: Inhibitory effect on the growth of P388/CPT tumor cell line transplanted subcutaneously into mice at dose of 4 mg/kg/day x 5 administered intravenously.
Experiment [2] has as its system Mus musculus. Kind of experiment: Inhibitory effect on the growth of Colon 26 tumor cell line transplanted subcutaneously into mice at dose of 4 mg/kg/day x 5 administered intravenously.
In experiment [3] the test system is Mus musculus. Kind of experiment: Inhibitory effect on the growth of Colon 26 tumor cell line transplanted subcutaneously into mice at dose of 2 mg/kg/day x 5 administered intravenously.
The test system of experiment [4] is Mus musculus. Kind of experiment: Inhibitory effect on the growth of P388/CPT tumor cell line transplanted subcutaneously into mice at dose of 2 mg/kg/day x 5 administered intravenously.

As a reminder, the T/C is the result in the treated group divided by that in the control group, in per cent.

In the case of `CCC1(O)C(=O)OCc2c1cc1n(c2=O)Cc2c-1nc1cc3c(cc1c2CCN)OCO3.O=C(O)C(F)(F)F` (stereo not drawn), the T/C in experiment [1] is 36%; in experiment [2], 49%; in experiment [3], 55%; in experiment [4] it was 65%.

As to `CC[C@@]1(O)C(=O)OCc2c1cc1n(c2=O)Cc2cc3c(CN(C)C)c(O)ccc3nc2-1` [TOPOTECAN], the T/C in experiment [1] worked out at 46%; in experiment [2], 51%; in experiment [3] it was 60%; in experiment [4] it was 59%.
